Counter-ions that a name gives are not always drawn.
experiment: Metabolic stability assay in human liver microsomes (HLM; Protocols 1 and 2); type: in vitro ADME; conditions: Protocol 1; human liver microsomes, 1 μM, NADPH, 37° C.
Method: Example B4: Metabolic Stability Assays
Studies were carried out in human and rat liver microsomes (“HLM” and “RLM,” respectively). Human and rat liver microsomes were purchased from BD Gentest. DMSO stocks were prepared for the test compounds. Aliquots of the DMSO solutions were diluted to 0.5 mM by acetonitrile, then further diluted by liver microsomes/buffer to 1.5 μM. 30 μL of 1.5 μM solutions were mixed with 15 μL of 6 mM NADPH, which had been pre-warmed to 37° C., at a final test compound concentration of 1 μM. The plates were kept in a 37° C. water bath for the duration of the experiment. At each time point (0, 5, 15, 30, 45 minutes), 135 μL of acetonitrile was added into corresponding wells. After the final time point was sampled, the plates were shaken at a vibrator (IKA, MTS 2/4) for 10 min (600 rpm/min) and then centrifuged at 5594 g for 15 min (Thermo Multifuge×3R). Aliquots of the supernatant were removed, diluted 1:1 into distilled water, and analyzed by LC-MS/MS. The peak area response ratio to internal standard (PARR) of the compounds at 5, 15, 30, 45 minutes was compared to the PARR at time 0 to determine the percent of test compound remaining at each time point. Half-lives were calculated using Excel software, fitting to a single-phase exponential decay equation.
Studies were carried out in human and rat liver microsomes. Buffer solutions were prepared as follows: Buffer A: 1.0 L of 0.1 M monobasic Potassium Phosphate buffer containing 1.0 mM EDTA; Buffer B: 1.0 L of 0.1 M Dibasic Potassium Phosphate buffer containing 1.0 mM EDTA; Buffer C: 0.1 M Potassium Phosphate buffer, 1.0 mM EDTA, pH 7.4 by titrating 700 mL of buffer B with buffer A while monitoring with a pH meter.
Reference compound (Ketanserin) and test compound spiking solutions were prepared as follows: 500 μM spiking solution: add 10 μL of 10 mM DMSO stock solution into 190 μL ACN; 1.5 μM spiking solution in microsomes (0.75 mg/mL): add 1.5 μL of 500 μM spiking solution and 18.75 μL of 20 mg/mL liver microsomes into 479.75 μL of Buffer C.
NADPH stock solution (6 mM) was prepared by dissolving NADPH into buffer C.
Assay procedure: 30 μL of 1.5 μM spiking solution containing 0.75 mg/mL microsomes solution was dispensed to the wells designated for 45 min, 30 min, 15 min, 5 min, and 0 min. The plate was pre-incubated at 37° C. for 10 minutes. 15 μL of NADPH stock solution (6 mM) was added to the wells designated as Time 45, and the timer was started. At 30 min, 15 min, and 5 min, 15 μL NADPH stock solution (6 mM) was added to the wells, respectively. At the end of incubation (0 min), 135 tit of ACN containing IS was added to all the wells. Then 15 tit of NADPH stock solution (6 mM) was added to the wells designated as Time 0. After quenching, the reaction mixtures were centrifuged at 3220 g for 10 min. Following centrifugation, 50 μL of the supernatant was transferred from each well into a 96-well sample plate containing 50 μL of ultra-pure water (Millipore) for LC/MS analysis. The peak area response (PARR) ratio to internal standard of the compounds at 5, 15, 30, and 45 minutes was compared to the PARR at time 0 to determine the percent of test compound remaining at each time point. Half-lives were calculated using Excel software, fitting to a single-phase exponential decay equation.

Compound	HLM
Cl.O=C(OCC12CCN(CC1)CC2)c1c[nH]c2cc(O)c(F)cc12 [Compound 59, Quinuclidin-4-ylmethyl 5-fluoro-6-hydroxy-1H-indole-3-carboxylate hydrochloride]	0 mL/min/kg

same assay, conditions: human, microsomes, 1 μM

Compound	HLM
Cc1cc(O)cc2[nH]cc(C(=O)OCC34CCN(CC3)CC4)c12 [Compound 83, quinuclidin-4-ylmethyl 6-hydroxy-4-methyl-1H-indole-3-carboxylate]	2.7 mL/min/kg

experiment: Human plasma stability (Protocols 1 and 2); type: in vitro ADME; conditions: Protocol 1; human plasma pH 7.4, 1 μM, 37° C., 2 h
Method: Example B6: Human Plasma Stability
Studies were carried out in human plasma. All plasma was obtained from Bioreclamation and collected on sodium heparin. Plasma was adjusted to pH 7.4. A DMSO stock was first prepared for the test compound. An aliquot of the DMSO solution was dosed into 1 mL of plasma, which had been pre-warmed to 37° C., at a final test compound concentration of 1 μM. The vials were kept in a benchtop Thermomixer® for the duration of the experiment. Aliquots (100 μL) were taken at each time point (0, 15, 30, 60, and 120 minutes) and added to 96-well plates which had been pre-filled with 300 μL of acetonitrile. Samples were stored at 4° C. until the end of the experiment. After the final time point was sampled, the plate was mixed and then centrifuged at 3,000 rpm for 10 minutes. Aliquots of the supernatant were removed, diluted 1:1 into distilled water, and analyzed by LC-MS/MS. The peak area response ratio to internal standard (PARR) of the compound at 15, 30, 60 and 120 minutes was compared to the PARR at time 0 to determine the percent of test compound remaining at each time point. Half-lives were calculated using GraphPad software, fitting to a single-phase exponential decay equation.
Studies were carried out in plasma. Plasma was prepared under approval of IRB and IACUC on sodium heparin. The pH of plasma was monitored and used within the range of pH 7.4 to pH 8.0. DMSO stocks were prepared for the test compounds. Aliquots of the DMSO solutions were diluted to 0.05 mM by 0.05 mM Sodium phosphate buffer with 0.5% BSA. Then 10 μL of 0.05 mM solutions were dosed into 90 μL of plasma in duplicates (n=2), which had been pre-warmed to 37° C., at a final test compound concentration of 5 μM. The plates were kept in a 37° C. water bath for the duration of the experiment. At each time point (0, 5, 15, 30, 45, 60, and 120 minutes), 400 μL of acetonitrile was added into corresponding wells. After the final time point was sampled, the plates were shaken at the vibrator (IKA, MTS 2/4) for 10 min (600 rpm/min) and then centrifuged at 5594 g for 15 min (Thermo Multifuge×3R). Aliquots of the supernatant were removed, diluted 1:1 into distilled water, and analyzed by LC-MS/MS. The peak area response ratio to internal standard (PARR) of the compounds at 5, 15, 30, 45, 60, and 120 minutes was compared to the PARR at time 0 to determine the percent of test compound remaining at each time point. Half-lives were calculated using Excel software, fitting to a single-phase exponential decay equation.

Compound	% Remaining @ 2 h
Cl.O=C(OCC12CCN(CC1)CC2)c1c[nH]c2cc3c(cc12)OCCO3 [Compound 30, Quinuclidin-4-ylmethyl 2,3-dihydro-6H-[1,4]dioxino[2,3-f]indole-8-carboxylate hydrochloride]	10%

same assay, conditions: human, plasma, 2 h, 1 μM, pH 7.4

Compound	% Remaining @ 2 h
O=C(OCC12CCN(CC1)CC2)c1c[nH]c2cc(Cl)ccc12 [Compound 26, quinuclidin-4-ylmethyl 6-chloro-1H-indole-3-carboxylate]	65%
O=C(OCC12CCN(CC1)CC2)c1c[nH]c2cccc(Cl)c12 [Compound 35, quinuclidin-4-ylmethyl 4-chloro-1H-indole-3-carboxylate]	56%
O=C(OCC12CCN(CC1)CC2)c1c[nH]c2ccccc12 [Compound 1, quinuclidin-4-ylmethyl 1H-indole-3-carboxylate]	11%
O=C(OCC12CCN(CC1)CC2)c1c[nH]c2cc(O)ccc12 [Compound 14, quinuclidin-4-ylmethyl 6-hydroxy-1H-indole-3-carboxylate]	26%

same assay, conditions: human, plasma, pH 7.4

Compound	half-life at 5 μM	T1/2
Cc1cc(O)cc2[nH]cc(C(=O)OCC34CCN(CC3)CC4)c12 [Compound 83, quinuclidin-4-ylmethyl 6-hydroxy-4-methyl-1H-indole-3-carboxylate]	6.48 h	
Cc1cc(OC(=O)C(C)(C)C)cc2[nH]cc(C(=O)OCC34CCN(CC3)CC4)c12 [Compound 89, quinuclidin-4-ylmethyl 4-methyl-6-(pivaloyloxy)-1H-indole-3-carboxylate]	5.16 h	
COc1c(OCC(F)(F)F)ccc2[nH]cc(C(=O)OCC34CCN(CC3)CC4)c12 [Compound 88, quinuclidin-4-ylmethyl 4-methoxy-5-(2,2,2-trifluoroethoxy)-1H-indole-3-carboxylate]		∞
COCCCOc1ccc2[nH]cc(C(=O)OCC34CCN(CC3)CC4)c2c1C [Compound 92, quinuclidin-4-ylmethyl 5-(3-methoxypropoxy)-4-methyl-1H-indole-3-carboxylate]	3.13 h	
COc1ccc2[nH]cc(C(=O)OCC34CCN(CC3)CC4)c2c1OC [Compound 40, quinuclidin-4-ylmethyl 4,5-dimethoxy-1H-indole-3-carboxylate]		∞
COc1cc(C)cc2[nH]cc(C(=O)OCC34CCN(CC3)CC4)c12 [Compound 85, quinuclidin-4-ylmethyl 4 methoxy-6-methyl-1H-indole-3-carboxylate]	1.16 h	
COc1ccc2[nH]cc(C(=O)OCC34CCN(CC3)CC4)c2c1Cl [Compound 39, quinuclidin-4-ylmethyl 4-chloro-5-methoxy-1H-indole-3-carboxylate]	0.711 h	
Cc1cc(C#N)cc2[nH]cc(C(=O)OCC34CCN(CC3)CC4)c12 [Compound 60, quinuclidin-4-ylmethyl 6-cyano-4-methyl-1H-indole-3-carboxylate]	22.9 h	
Cc1c(OCC(F)(F)F)ccc2[nH]cc(C(=O)OCC34CCN(CC3)CC4)c12 [Compound 94, quinuclidin-4-ylmethyl 4-methyl-5-(2,2,2-trifluoroethoxy)-1H-indole-3-carboxylate]	5.74 h	
COc1cc(Br)c2c(C(=O)OCC34CCN(CC3)CC4)c[nH]c2c1 [Compound 48, quinuclidin-4-ylmethyl 4-bromo-6-methoxy-1H-indole-3-carboxylate]	982 h	
COc1c(C)ccc2[nH]cc(C(=O)OCC34CCN(CC3)CC4)c12 [Compound 75, quinuclidin-4-ylmethyl 4-methoxy-5-methyl-1H-indole-3-carboxylate]		∞
COc1cc(C#N)cc2[nH]cc(C(=O)OCC34CCN(CC3)CC4)c12 [Compound 77, quinuclidin-4-ylmethyl 6-cyano-4-methoxy-1H-indole-3-carboxylate]	3.87 h	
CC(=O)Nc1cc(C)c2c(C(=O)OCC34CCN(CC3)CC4)c[nH]c2c1 [Compound 93, quinuclidin-4-ylmethyl 6-acetamido-4-methyl-1H-indole-3-carboxylate]	10.7 h	
O=C(OCC12CCN(CC1)CC2)c1c[nH]c2cc(Cl)cc(Br)c12 [Compound 42, quinuclidin-4-ylmethyl 4-bromo-6-chloro-1H-indole-3-carboxylate]	2.87 h	
O=C(OCC12CCN(CC1)CC2)c1c[nH]c2ccc(F)c(Cl)c12 [Compound 62, quinuclidin-4-ylmethyl 4-chloro-5-fluoro-1H-indole-3-carboxylate hydrochloride]	5.91 h	
Cc1c(F)ccc2[nH]cc(C(=O)OCC34CCN(CC3)CC4)c12 [Compound 43, quinuclidin-4-ylmethyl 5-fluoro-4-methyl-1H-indole-3-carboxylate]		∞
O=C(OCC12CCN(CC1)CC2)c1c[nH]c2cccc(C3CC3)c12 [Compound 61, Quinuclidin-4-ylmethyl 4-cyclopropyl-1H-indole-3-carboxylate]	14 h	

same assay, conditions: human; Protocol 2; plasma pH 7.4 to 8.0, 5 μM, 37° C.; read-out: T1/2

Compound	half-life at 5 μM
Cl.O=C(OCC12CCN(CC1)CC2)c1c[nH]c2cc(O)c(F)cc12 [Compound 59, Quinuclidin-4-ylmethyl 5-fluoro-6-hydroxy-1H-indole-3-carboxylate hydrochloride]	2.27 h
O=C(OCC12CCN(CC1)CC2)c1c[nH]c2cc(O)cc(Br)c12 [Compound 53, quinuclidin-4-ylmethyl 4-bromo-6-hydroxy-1H-indole-3-carboxylate]	31.1 h
Cc1cc2c(C(=O)OCC34CCN(CC3)CC4)c[nH]c2cc1C#N [Compound 84, quinuclidin-4-ylmethyl 6-cyano-5-methyl-1H-indole-3-carboxylate]	3.49 h
Cl.O=C(OCC12CCN(CC1)CC2)c1c[nH]c2cc(F)cc(Cl)c12 [Compound 64, quinuclidin-4-ylmethyl 4-chloro-6-fluoro-1H-indole-3-carboxylate hydrochloride]	12.1 h
